Assay results taken from BindingDB's records for doi:10.1016/j.bmc.2019.06.020 (Shanghai Jiao Tong University, 2019).

Legend:
[1] = target: T1, Polypeptide N-acetylgalactosaminyltransferase 2 (Homo sapiens, UniProt Q10471); assay: Binding affinity of human recombinant FLAG-tagged ppGalNAcT2 expressed in HEK293 cells assessed as dissociation rate by SPR analysis
[2] = target: T1, Polypeptide N-acetylgalactosaminyltransferase 2; assay: Binding affinity of human recombinant FLAG-tagged ppGalNAcT2 expressed in HEK293 cells assessed as association rate by SPR analysis; conditions: read-out: kon (M-1-s-1)

T1 sequence (Q10471 whole entry): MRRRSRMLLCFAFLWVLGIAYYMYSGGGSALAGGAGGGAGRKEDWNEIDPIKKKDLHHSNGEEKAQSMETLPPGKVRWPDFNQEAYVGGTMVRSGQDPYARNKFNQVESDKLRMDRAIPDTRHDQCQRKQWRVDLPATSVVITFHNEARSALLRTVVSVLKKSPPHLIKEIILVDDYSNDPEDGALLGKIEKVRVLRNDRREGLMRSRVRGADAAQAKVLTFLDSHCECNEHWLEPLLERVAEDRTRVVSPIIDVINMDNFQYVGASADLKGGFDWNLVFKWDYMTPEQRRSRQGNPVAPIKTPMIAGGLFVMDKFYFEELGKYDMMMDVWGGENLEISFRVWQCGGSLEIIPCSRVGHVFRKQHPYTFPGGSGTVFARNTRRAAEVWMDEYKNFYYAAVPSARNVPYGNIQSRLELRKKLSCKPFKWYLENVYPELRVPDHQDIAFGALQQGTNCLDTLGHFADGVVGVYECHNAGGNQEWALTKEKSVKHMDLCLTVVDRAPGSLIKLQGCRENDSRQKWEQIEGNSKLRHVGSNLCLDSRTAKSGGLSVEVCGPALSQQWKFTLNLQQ

| koff [1] [s⁻¹] | kon [2] [M⁻¹ s⁻¹] | SMILES |
| --- | --- | --- |
| 0.00104 | 3530 | O=c1oc2c(O)c(O)ccc2c2cc(O)c(O)cc12 |
| 0.000879 | 2370 | O=c1oc2c(O)c(O)cc3c(=O)oc4c(O)c(O)cc1c4c23 [Elagic Acid] |

| SMILES | koff [1] [s⁻¹] | kon [2] [M⁻¹ s⁻¹] |
| --- | --- | --- |
| O=C(O)c1cc(O)c(O)c(O)c1 [Gallic Acid, F] | 0.00134 | 1450 |
